Assay [1] deals with M. tuberculosis ATCC 35838 (H37Rv RIF-R). Kind of assay: MIC by agar proportion method, standard strain. Type of assay: cell-based. Conditions: Mycobacterium tuberculosis.
The subject of assay [2] is intracellular M. tuberculosis H37Rv. Kind of assay: microbe, parasite or virus in culture. The assay is classed as cell-based.
For assay [3], the system named is M. tuberculosis ATCC 35837 (H37Rv EMB-R). Kind of assay: MIC by agar proportion method, standard strain. Conditions: Mycobacterium tuberculosis. Type of assay: cell-based.
Assay [4] relates to M. tuberculosis ATCC 35820 (H37Rv SM-R). Kind of assay: MIC by agar proportion method, standard strain. Type of assay: cell-based. Conditions: Mycobacterium tuberculosis.
Another assay relates to M. caprae ATCC BAA-824. Kind of assay: MIC by agar proportion method, standard strain. Type of assay: cell-based. Conditions: ATCCBAA824.
The subject of assay [5] is M. pinnipedii ATCC BAA-688. Kind of assay: MIC by agar proportion method, standard strain. Type of assay: cell-based. Conditions: ATCCBAA688.
In assay [6] the test system is intracellular M. tuberculosis Kurono. Kind of assay: microbe, parasite or virus in culture. The assay is classed as cell-based.
Another assay deals with M. africanum ATCC 25420. Kind of assay: MIC by agar proportion method, standard strain. As to conditions: ATCC25420. Type of assay: cell-based.
A further assay deals with M. bovis ATCC BAA-935. Kind of assay: microbe, parasite or virus in culture. The assay is classed as cell-based. As to conditions: Mycobacterium tuberculosis variant bovis, ATCCBAA935.
Assay [7] has as its system M. tuberculosis ATCC 27294 (H37Rv). Kind of assay: MIC by agar proportion method, standard strain. The assay is classed as cell-based. Conditions: Mycobacterium tuberculosis.
For assay [8], the system named is M. tuberculosis ATCC 35822 (H37Rv INH-R). Kind of assay: MIC by agar proportion method, standard strain. The assay is classed as cell-based. Conditions: Mycobacterium tuberculosis.
The subject of assay [9] is M. tuberculosis ATCC 35828 (H37Rv PZA-R). Kind of assay: MIC by agar proportion method, standard strain. The assay is classed as cell-based. Conditions: Mycobacterium tuberculosis.
The test system of a further assay is M. microti ATCC 11152. Kind of assay: MIC by agar proportion method, standard strain. Type of assay: cell-based. As to conditions: ATCC11152.
The test system of assay [10] is M. tuberculosis ATCC 35812 (Kurono). Kind of assay: MIC by agar proportion method, standard strain. The assay is classed as cell-based. As to conditions: Mycobacterium tuberculosis, ATCC35812.
For another assay, the system named is M. tuberculosis Kurono. The assay is classed as in vivo. Conditions: in vivo.
Setting [11] is: […], agar proportion method, read-out: MIC.
The mark [12] stands for this setting: M. caprae ATCC BAA-824, agar proportion method, read-out: MIC.
Where [13] appears, read: M. pinnipedii ATCC BAA-688, agar proportion method, read-out: MIC.
Where [14] appears, read: M. africanum ATCC 25420, agar proportion method, read-out: MIC.
[15] abbreviates: ATCC 27294 (H37Rv), agar proportion method, […], read-out: MIC.
Setting [16] is: M. microti ATCC 11152, agar proportion method, read-out: MIC.
[17] abbreviates: ATCC 35812 (Kurono), agar proportion method, read-out: MIC.

SMILES strings stand for the structures. Converted amounts (≈) assume the structure as drawn. Like-named read-outs stand apart in the source and are kept apart here.

On to `CO[C@H]1/C=C/O[C@@]2(C)Oc3c(C)c(O)c4c(O)c(c(/C=N/N5CCN(C)CC5)c(O)c4c3C2=O)NC(=O)/C(C)=C\C=C\[C@H](C)[C@H](O)[C@@H](C)[C@@H](O)[C@@H](C)[C@H](OC(C)=O)[C@@H]1C` [RIF, rifampin], for which the MIC in assay [1] was more than 16 µg/mL; in assay [3], 0.25 µg/mL (≈ 0.304 µM); in assay [4], 0.25 µg/mL (≈ 0.304 µM); against M. caprae ATCC BAA-824, 0.13 µg/mL (≈ 0.158 µM); in [5], 0.5 µg/mL (≈ 0.608 µM); in the assay with M. africanum ATCC 25420, 0.25 µg/mL (≈ 0.304 µM). Also, the MIC was found to be 0.063 µg/mL (≈ 0.0766 µM) with M. bovis ATCC BAA-935; 0.25 µg/mL (≈ 0.304 µM) in assay [7]; 0.5 µg/mL (≈ 0.608 µM) in [8]; 1 µg/mL (≈ 1.22 µM) in assay [9]; 0.13 µg/mL (≈ 0.158 µM) against M. microti ATCC 11152; 0.25 µg/mL (≈ 0.304 µM) in assay [10]. For the same compound, the “bactericidal activity against intracellular bacilli” value in [2] and in assay [6] was “killed the intracellular bacilli” throughout. In addition, the IC90 stood at 1.15 µg/mL (≈ 1.4 µM) in assay [2] (Mycobacterium tuberculosis, H37RV, THP-1, read-out: 90% inhibitory concentration (IC90)) and 0.565 µg/mL (≈ 0.686 µM) in assay [6] (Mycobacterium tuberculosis, THP-1, read-out: 90% inhibitory concentration (IC90)).

On to `[H]/N=C(/N)N[C@H]1[C@H](O)[C@@H](O)[C@H](O[C@@H]2O[C@@H](C)[C@](O)(C=O)[C@H]2O[C@@H]2O[C@@H](CO)[C@H](O)[C@@H](O)[C@@H]2NC)[C@@H](N/C(N)=N\[H])[C@@H]1O` [STR, streptomycin], for which the “bactericidal activity against intracellular bacilli” value is reported as “no bactericidal activity” in assay [2] (H37Rv in THP-1-derived macrophage-like cells, 3 days) and “no bactericidal activity” in assay [6] (Kurono in THP-1-derived macrophage-like cells, 3 days).

On to `C[C@]1(COc2ccc(N3CCC(Oc4ccc(OC(F)(F)F)cc4)CC3)cc2)Cn2cc([N+](=O)[O-])nc2O1` [DMD, delamanid], for which the MIC was 0.004 µg/mL (≈ 0.00748 µM) in assay [1] (setting [11]); 0.004 µg/mL (≈ 0.00748 µM) in assay [3] (setting [11]); 0.004 µg/mL (≈ 0.00748 µM) in [4] (setting [11]); 0.002 µg/mL (≈ 0.00374 µM) in the assay on M. caprae ATCC BAA-824 (setting [12]); 0.002 µg/mL (≈ 0.00374 µM) in [5] (setting [13]); 0.001 µg/mL (≈ 0.00187 µM) in the assay with M. africanum ATCC 25420 (setting [14]). In addition, the MIC was 0.004 µg/mL (≈ 0.00748 µM) with M. bovis ATCC BAA-935; 0.004 µg/mL (≈ 0.00748 µM) in assay [7] (setting [15]); 0.004 µg/mL (≈ 0.00748 µM) in assay [8] (setting [11]); 0.004 µg/mL (≈ 0.00748 µM) in assay [9] (setting [11]); 0.002 µg/mL (≈ 0.00374 µM) in the assay with M. microti ATCC 11152 (setting [16]); 0.004 µg/mL (≈ 0.00748 µM) in [10] (setting [17]). Also, in the assay on M. tuberculosis Kurono, the “lung CFU compared to the vehicle group, single agent” value is “significant decrease of lung CFU”.

Turning to `CC(=O)NC[C@H]1CN(c2ccc(N3CCOCC3)c(F)c2)C(=O)O1` [LZD, linezolid], the MIC in assay [1] came to 0.5 µg/mL (≈ 1.48 µM); in [3], 0.5 µg/mL (≈ 1.48 µM); in [4] it was 0.5 µg/mL (≈ 1.48 µM); with M. caprae ATCC BAA-824 it was 0.25 µg/mL (≈ 0.741 µM); in assay [5] it was 1 µg/mL (≈ 2.96 µM); against M. africanum ATCC 25420, 0.5 µg/mL (≈ 1.48 µM). Moreover, the MIC in the assay with M. bovis ATCC BAA-935 came to 0.5 µg/mL (≈ 1.48 µM); in [7], 1 µg/mL (≈ 2.96 µM); in assay [8], 1 µg/mL (≈ 2.96 µM); in assay [9], 1 µg/mL (≈ 2.96 µM); with M. microti ATCC 11152, 0.5 µg/mL (≈ 1.48 µM); in assay [10] it was 1 µg/mL (≈ 2.96 µM).

For `COc1c(N2C[C@@H]3CCCN[C@@H]3C2)c(F)cc2c(=O)c(C(=O)O)cn(C3CC3)c12` [MXF, moxifloxacin], the MIC in assay [1] (setting [11]) amounted to 0.25 µg/mL (≈ 0.623 µM); in [3] (setting [11]) it was 0.25 µg/mL (≈ 0.623 µM); in assay [4] (setting [11]), 0.5 µg/mL (≈ 1.25 µM); in the assay on M. caprae ATCC BAA-824 (setting [12]), 0.063 µg/mL (≈ 0.157 µM); in assay [5] (setting [13]), 0.25 µg/mL (≈ 0.623 µM); in the assay on M. africanum ATCC 25420 (setting [14]), 0.25 µg/mL (≈ 0.623 µM). Moreover, the MIC was found to be 0.13 µg/mL (≈ 0.324 µM) with M. bovis ATCC BAA-935; 0.5 µg/mL (≈ 1.25 µM) in assay [7] (setting [15]); 0.25 µg/mL (≈ 0.623 µM) in assay [8] (setting [11]); 0.5 µg/mL (≈ 1.25 µM) in assay [9] (setting [11]); 0.063 µg/mL (≈ 0.157 µM) in the assay with M. microti ATCC 11152 (setting [16]); 0.13 µg/mL (≈ 0.324 µM) in assay [10] (setting [17]).

Take `C[C@H]1COc2c(N3CCN(C)CC3)c(F)cc3c(=O)c(C(=O)O)cn1c23` [LVX, levofloxacin]: the MIC in assay [1] (setting [11]) is 0.5 µg/mL (≈ 1.38 µM); in assay [3] (setting [11]) it was 0.5 µg/mL (≈ 1.38 µM); in [4] (setting [11]), 0.5 µg/mL (≈ 1.38 µM); in the assay with M. caprae ATCC BAA-824 (setting [12]) it was 0.25 µg/mL (≈ 0.692 µM); in assay [5] (setting [13]), 0.25 µg/mL (≈ 0.692 µM); in the assay on M. africanum ATCC 25420 (setting [14]), 0.25 µg/mL (≈ 0.692 µM). The MIC came out at 0.25 µg/mL (≈ 0.692 µM) with M. bovis ATCC BAA-935; 0.5 µg/mL (≈ 1.38 µM) in [7] (setting [15]); 0.5 µg/mL (≈ 1.38 µM) in [8] (setting [11]); 0.5 µg/mL (≈ 1.38 µM) in [9] (setting [11]); 0.25 µg/mL (≈ 0.692 µM) in the assay on M. microti ATCC 11152 (setting [16]); 0.5 µg/mL (≈ 1.38 µM) in assay [10] (setting [17]). Besides, in the assay on M. tuberculosis Kurono, the “lung CFU compared to the vehicle group, single agent” value is given as “significant decrease of lung CFU”.

(Values after article PMC7269503 (Antimicrobial Agents and Chemotherapy, 2020).)
